The values below come from US8946271B2, “Water soluble furoxan derivatives having antitumor activity” (Humanitas Mirasole S.p.A., priority 2010, dated 2015).

Broadly, the solubility is the concentration that dissolves in the medium under given conditions. A low value points to little dissolved substance.

Data set [1] can be described thus: Stability in human serum at 37° C. (RP-HPLC). The class given is in vitro ADME. The following applies: for half-life at 200 μM: read-out: Stability in human serum t1/2. On the procedure: (§1) The stability of the compound MC526 was studied through reverse phase chromatography in an aqueous medium at pH=1 and in the human serum at 37° C.
In order to assay the stability of the compound of Example 1 in human serum, a 10 mM solution of the compound in DMSO was added to human serum (obtained from human AB plasma, Sigma) preheated to 37° C. The final concentration of the compound was 200 μM. The resulting solution was incubated at 37±0.5° C. and 300 μL aliquots of the reaction mixture were collected and added to an equal amount of acetonitrile containing trifluoroacetic acid 0.1% at suitable time intervals for deproteinising the serum. The sample was sonicated, vortexed and then centrifuged for 10 minutes at 2150 g. The white supernatant was filtered using PTFE 0.45μm (Alltech) filters and analysed through RP-HPLC.
(§2) The analysis in RP-HPLC allows separating and quantifying the initial compounds and those deriving from hydrolysis. Analysis was carried out using a HP1100 (Agilent Technologies, Palo Alto, Calif., USA) chromatography system equipped with a quaternary pump (model G1311A), a degassing membrane (G1379A), a diode-array detector (DAD) (model G1315B) integrated in the HP1100 system. A HP ChemStation (Agilent Technologies) system was used for analyzing data. The analytic column was Nucleosil 100-5 C18 Nautilus (250×4, 6 mm, size of the particles 5 μm) (Macherey-Nagel). The mobile phase used was constituted by acetonitrile/water (55/45) with 0.1% trifluoroacetic acid and the flow rate is of 1.2 ml/min. The injection volume was 20 μl (Rheodyne, Cotati, Calif.). The effluent from column was monitored at 226 nm (for the compound MC526 and for CAS 1609) and at 240 nm (for salicylic acid and the salicylate AT38) against a reference at 600 nm. The quantification of the initial products and those deriving from hydrolysis was carried out by means of calibration curves obtained using standards studied in the same conditions (for concentrations comprised between 5 and 200 μM).

The next data set can be described thus: Solubility in water. The data set is classed as physicochemical.
Data set [2] in a line: Stability in aqueous medium at pH=1 (0.1 M HCl, 37° C., RP-HPLC). The data set is classed as physicochemical. To be noted: compound unaltered after 1 hour of incubation, 100 μM. On the procedure: as §1
In particular, a 10 mM solution of the compound of Example 1 in DMSO was added to a 0.1 M solution of HCl preheated to 37° C. The final concentration of the compound was 100 μM. The resulting solution was maintained at 37±0.5° C. and 20 μl aliquots of the reaction solution were analysed by means of RP-HPLC at suitable time intervals.
as §2

In data set [3] the test system is splenocytes of the BALB/C from the control animal group and from the animals carrying colon carcinoma26 (C26GM). Nature of the data set: Proliferation assay (3H-TdR) of anti-CD3/anti-CD28 stimulated splenocytes. The class given is cell-based, mice. To be noted: FIG. 7. On the procedure: The mice BALB/c were inoculated s.c. in the inguinal cavity with 0.5*10^6 cells C26GM. The mice were sacrificed after 9 days and the splenocytes were used for in vitro assays.
The splenocytes of the BALB/C from the control animal group and from the animals carrying colon carcinoma26 (C26GM) are plated to the concentration of 6*10^5 cells per well and stimulated with 3 μg/ml anti-CD3 (2C11, ATCC) and 2 μg/ml of anti-CD28 (clone 37.5, ATCC) both with and without scalar dilutions of the compounds subject of the invention. After 3 days of incubation, 1 μCi/well (1 Cl=37 GBq) of ^3H-TdR (PerkinElmer) is added to the culture for 18 hours and the addition thereof is monitored by scintillation.
In particular, the controls (Unst) refer to cells not stimulated with antiCD3 and antiCD28 and the control (St) on stimulated cells but drug-free. It can be observed that the doses corresponding to 200 μM and 100 μM are toxic for the cells, in that the proliferation is not observed even on healthy splenocytes.

The structures appear in SMILES notation. Counter-ions that a name gives are not always drawn.

For `NC(=O)c1c(COC(=O)c2ccccc2O)no[n+]1[O-]` [AT38, [3-(aminocarbonyl)furoxan-4-yl]methyl salicylate, reference compound], the “Hydrolysis of the salicylate derivative in human serum” value in data set [1] (release of CAS 1609 and salicylic acid) was “slowly releases the CAS 1609 compound and salicylic acid”. Also, in “Solubility in water”, the solubility was below 1 µg/mL.

Take `NCCC(=O)Oc1ccccc1C(=O)OCc1no[n+]([O-])c1C(N)=O` [MC526, ([3-(aminocarbonyl)furoxan-4-yl]methyl-2-(β-alanyloxy)benzoate)hydrochloride]: the “Stability in buffer at pH = 1 after 1 hour” value (shortened to “Stability in buffer”) in data set [2] amounted to 60%. Besides, the Proliferation assay result was “efficient and non-toxic” in data set [3] (12.5 μM); “efficient and non-toxic” in data set [3] (25 μM); “toxic” in data set [3] (100 μM, healthy splenocytes); “toxic” in data set [3] (200 μM, healthy splenocytes). Besides, the “Proliferation assay result on healthy cells” value in data set [3] (50 μM, healthy cells) was “partly toxic”. Besides, the half-life at 200 μM in data set [1] was determined as 1.4 min. In “Solubility in water”, the solubility was 10000 µg/mL.

Consider `NCCCC(=O)Oc1ccccc1C(=O)OCc1no[n+]([O-])c1C(N)=O` [MC596, ([3-(aminocarbonyl)furoxan-4-yl]methyl-2-(4-aminobutanoyloxy)benzoate hydrochloride)], for which the “Stability in buffer” value in data set [2] is reported as 90%. The half-life at 200 μM in data set [1] came to 1.6 min. In “Solubility in water”, the solubility is 2500 µg/mL.

With `CC(N)C(=O)Oc1ccccc1C(=O)OCc1no[n+]([O-])c1C(N)=O` (stereo not shown) [MC598, ([3-(aminocarbonyl)furoxan-4-yl]methyl-2-(alanyloxy)benzoate hydrochloride)], the “Stability in buffer” value in data set [2] is given as 80%. In addition, the half-life at 200 μM in data set [1] came to 1.3 min. This compound also returned a solubility in “Solubility in water” of 10000 µg/mL.
